Results: patent US20060003936A1, “Method for modulating the production of a selected protein in vivo” (priority 2002, published 2006)

Tests used:
[1] = tested on: HCT-116 cells (116LT, 116HT); assay: GCV and TMTX cytotoxicities on transduced HCT-116 cells; assay type: cell-based, human
Description: FIGS. 7A-D show GCV sensitivty and TMTX resisatnce in parental, tranduced and TMTX exposed colon cancer cells of the HCT-116 and HCT-8 cells lines. Bulk transduction of HCT-116 and HCT-8 was carried out with an moi of 30 for 24 hours or an moi of 2.5 for 2 hours to produce cell lines 116HT and 116LT, and 8HT and 8LT, respectively. Successful gene transfer and transgene expression was confirmed by PCR and Western blotting. […] Infection of 8LT was not detectable with the assay used.
GCV amd TMTX cytotoxicities were measured on the transduced cells. […] (FIGS. 7A and C). This finding correlates with observed levels of fusion protein expression in these cells.

[2] = tested on: HCT-8 cells (8LT, 8HT, 8LT-CT); assay: GCV and TMTX cytotoxicities on transduced HCT-8 cells; assay type: cell-based, human
Description: Bulk transduction of HCT-116 and HCT-8 was carried out with an moi of 30 for 24 hours or an moi of 2.5 for 2 hours to produce cell lines 116HT and 116LT, and 8HT and 8LT, respectively.
GCV amd TMTX cytotoxicities were measured on the transduced cells.

[3] = tested on: HCT-8, HCT-116 and C85 colorectal cancer cells transduced with SFG-DHFR/HSV-TK; assay: GCV sensitivity of transduced colon cancer cells; assay type: cell-based, human
Description: (§1) Retrovirus-producing cell lines were generated by transfection of DHFR-HSV1-TK plasmid in parental GP+envAM12 cells. Transfection was performed three times at cell densities of 30%, 50% and 75% using Superfect (Qiagen, Chatsworth, Calif.) as described by the manufacturer. Clones of the retrovirus were selected in 150 nM TMTX. Viral titers were determined against NIH 3T3 cells. Retrovirus-producing AM12V cells were grown in medium without antifolate to a density of 60-80%; the day before infection, the mdeium was changed. Viral transduction was performed by infecting colon cancer cells plated 48 hours before infection in 10 cm dishes. Four single virus exporsures with the desired multiplicity of infection (moi), each of 6 hour duration, were carried out. For each single exposure, fresh AM12V supernatant was filtered through a 0.45 μm cellulose acetate filter and supplemented with polybrene (8 μg/ml). The 2-hour viral transduction was performedin 6 well plates.
(§2) The transduced cells were treated with varying amounts of TMTX (10, 100 and 1000 μM) and levels of fusion protein were detected by Western blotting using either an anti-HSV-TK antibody or an anti-human DHFR antibody.
Three colorectal cancer cells lines (HCT-8, HCT-116 and a cell line, C85, recently established from a patient with liver metastasis) were transduced with the SFG-DHFR/HSV-TK fusion vector of Example 1. […]

[4] = target: T1, DHFR-HSV1 TK fusion protein (Homo sapiens, UniProt P00374, F32S/L23F); assay: Western blot of DHFR-HSV-TK fusion protein in transduced colon cancer cells treated with antifolate; assay type: cell-based
T1 construct: HSV1 thymidine kinase (fusion partner); expressed in transfected cells; host or cells: HCT-8, HCT-116 and C85 human colorectal cancer cells, retrovirally transduced with SFG-DHFR/HSV-TK
Description: as §1, §2
Three colorectal cancer cells lines (HCT-8, HCT-116 and a cell line, C85, recently established from a patient with liver metastasis) were transduced with the SFG-DHFR/HSV-TK fusion vector of Example 1. Transduction was verified by PCR using transgene specific primers and elevation of DHFR-HSVTK mRNA and protein expression.

[5] = tested on: DHFR-HSV1 TK fusion protein; assay: DHFR-HSV1 TK fusion protein level in tumor tissue of treated rats; assay type: in vivo, rat; conditions: rats with flank tumors; 10 mg/kg once daily for three days or single 100 mg/kg; vs water-treated controls
Description: Rats bearing flank tumors were treated with 10 mg/kg of TMTX for three days (once daily), or with a single high dose of 100 mg/kg. The levels of DHFR-HSV1 TK fusion protein in the tumor tissue of antifolate treated rats, as well as in water-treated controls were analyzed. […] The mean increase was at least 2-fold.

DHFR-EGFP fusion protein = assay: Fluorescence microscopy of EGFP expression in transfected GP+envAM12 cells; assay type: cell-based
Description: Transfections of parental GP+envAM12 cells (Markowitz et al., Virology 167: 400-405 (1988)) with EGFP-containing SFG-plasmids was carried out using DOTAP transfecting reagent (N-{1-(2,3-dioleyloxy)propyl]-N,N,N,-trimethylammonium methyl sulfate, Roche Molecular Biochemicals). Cells transfected with EGFP-expressing vectors were cultrued for at least 12 days and subsequently sorted for EGFP-positive cells using an FACS Vantage SE cell sorter (Becton Dickinson). For fluorescence microscopy, these cells were grown in T25 flasks. Confluent cells were cultured in fresh media with or without TMTX. Fluorescent images of randomly selected areas of the monolayer were taken with a Zeiss Axlovert S100 microscope.

[6] = tested on: tumors derived from 8LT-CT cells; assay: PET imaging of 124I-FIAU uptake in transduced tumors; assay type: in vivo, rat; conditions: three cycles of 10 mg/kg TMTX, three times daily for three days per cycle, 7 treated and 7 control rats
Description: In a second set of experiments, tumors derived from 8LT-CT and parental HCT-8 cells were evaluated by in vivo imaging. Before the imaging, each animal received three cycles of 10 mg/kg of TMTX, three times daily for three days per cycle. Using PET and the tracer ^124I-FIAU an increase in tumor-signal intensity in TMTX-treated rats was observed.

T1 sequence (P00374 other isoform, or with tags, fused parts or gaps L23F/F32S): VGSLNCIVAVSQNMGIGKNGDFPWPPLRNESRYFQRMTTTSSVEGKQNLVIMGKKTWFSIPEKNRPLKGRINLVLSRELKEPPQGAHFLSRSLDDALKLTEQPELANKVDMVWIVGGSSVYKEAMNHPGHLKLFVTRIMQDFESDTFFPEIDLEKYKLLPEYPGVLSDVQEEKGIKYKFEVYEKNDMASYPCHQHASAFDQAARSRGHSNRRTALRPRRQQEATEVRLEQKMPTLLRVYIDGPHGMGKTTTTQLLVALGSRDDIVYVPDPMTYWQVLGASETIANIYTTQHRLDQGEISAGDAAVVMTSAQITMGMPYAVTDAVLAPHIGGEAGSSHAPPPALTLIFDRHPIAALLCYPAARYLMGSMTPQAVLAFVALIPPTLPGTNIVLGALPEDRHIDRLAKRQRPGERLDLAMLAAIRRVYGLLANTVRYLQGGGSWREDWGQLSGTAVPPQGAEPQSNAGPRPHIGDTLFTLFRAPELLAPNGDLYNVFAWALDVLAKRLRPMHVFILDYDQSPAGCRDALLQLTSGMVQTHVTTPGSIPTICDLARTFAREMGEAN

Nc1nc(O)c2ncn(COC(CO)CO)c2n1 [GCV, gancyclovir]
GCV cytotoxicity compared with parental cell line ([1]; 116HT cells): higher | GCV cytotoxicity compared with parental cell line ([1]; 116LT cells): moderate | GCV cytotoxicity ([2]; 8HT cells): GCV sensitivity | increase in GCV sensitivity ([2]; HCT-8 cells treated chronically with increasing concentrations of TMTX (8LT-CT)): 250 fold | increase in sensitivity to GCV ([3]; transduced cells after cycles of nine day exposures to increasing TMTX, vs non-transduced cells): 250 fold | sensitivity to GCV ([3]; transduced cells compared to unselected or untransduced cells): increased sensitivity

COc1cc(NCc2ccc3nc(N)nc(N)c3c2C)cc(OC)c1OC [TMTX, trimetrexate]
TMTX resistance compared with parental cell line ([1]; 116HT cells): higher | TMTX resistance compared with parental cell line ([1]; 116LT cells): moderate | induction of expression of the DHFR-HSV1 TK fusion protein ([4]; concentration range 10^−2 to 1 μM): dose-dependent | fusion protein levels ([4]; high concentrations (1000 μM), without an increase in mRNA): transient increase in fusion protein levels | fusion protein expression (Western blot) ([4]; transduced colon cancer cells, TMTX 10, 100 and 1000 μM, anti-HSV-TK or anti-human DHFR antibody): upregulation of fusion protein expression was observed | mean increase of DHFR-HSV1 TK fusion protein in tumor tissue [5]: at least 2 fold | TMTX cytotoxicity ([2]; 8HT cells): TMTX resistance | expression of DHFR-EGFP fusion protein (DHFR-EGFP fusion protein; DHFR-EGFP fusion vector, 1 μM, durable at 24 and 48 hours): increased | expression of EGFP (DHFR-EGFP fusion protein; plasmids expressing DHFR and EGFP separated by IRES, or just EGFP): not increased | 124I-FIAU accumulation in transduced tumor tissue vs untreated controls [6]: 2.6 fold

COc1cc([C@@H]2c3cc4c(cc3[C@@H](O[C@@H]3O[C@@H]5CO[C@@H](C)O[C@H]5[C@H](O)[C@H]3O)[C@H]3COC(=O)[C@H]23)OCO4)cc(OC)c1O [etoposide]
induction of the fusion protein ([4]; treatment of cells, concentration not given): did not cause induction
